ChEMBL document CHEMBL4507287, “Data for DCP probe MRL-650” (2021)

Assays:
[1] = molecular target: Phosphatidylinositol 4,5-bisphosphate 3-kinase catalytic subunit alpha isoform (Homo sapiens) (UniProt P42336); conditions: Compound concentration 1000.0 nM
[2] = molecular target: Mitogen-activated protein kinase 9 (Homo sapiens) (UniProt P45984); conditions: Compound concentration 1000.0 nM
[3] = molecular target: Cyclin-dependent kinase 11B (Homo sapiens) (UniProt P21127); conditions: Compound concentration 1000.0 nM
[4] = test system: Epidermal growth factor receptor (Homo sapiens), P00533 [L861Q]; conditions: Compound concentration 1000.0 nM
[5] = molecular target: Mitogen-activated protein kinase kinase kinase 2 (Homo sapiens) (UniProt Q9Y2U5); conditions: Compound concentration 1000.0 nM
[6] = molecular target: Cyclin-dependent kinase 4 (Homo sapiens) (UniProt P11802); conditions: Compound concentration 1000.0 nM
[7] = molecular target: Serine/threonine-protein kinase NLK (Homo sapiens) (UniProt Q9UBE8); conditions: Compound concentration 1000.0 nM
[8] = molecular target: Mitogen-activated protein kinase kinase kinase 1 (Homo sapiens) (UniProt Q13233); conditions: Compound concentration 1000.0 nM
[9] = molecular target: Cyclin-dependent kinase 2 (Homo sapiens) (UniProt P24941); conditions: Compound concentration 1000.0 nM
[10] = molecular target: Hepatocyte growth factor receptor (Homo sapiens) (UniProt P08581); conditions: Compound concentration 1000.0 nM
[11] = test system: Epidermal growth factor receptor (Homo sapiens), P00533 [UNDEFINED MUTATION]; conditions: Compound concentration 1000.0 nM
[12] = molecular target: Serine/threonine-protein kinase BRSK2 (Homo sapiens) (UniProt Q8IWQ3); conditions: Compound concentration 1000.0 nM
[13] = molecular target: Insulin receptor-related protein (Homo sapiens) (UniProt P14616); conditions: Compound concentration 1000.0 nM
[14] = molecular target: Death-associated protein kinase 3 (Homo sapiens) (UniProt O43293); conditions: Compound concentration 1000.0 nM
[15] = test system: Tyrosine-protein kinase ABL1 (Homo sapiens), P00519 [Q252H]; conditions: Compound concentration 1000.0 nM
[16] = molecular target: Casein kinase I isoform alpha-like (Homo sapiens) (UniProt Q8N752); conditions: Compound concentration 1000.0 nM
[17] = molecular target: Serine/threonine-protein kinase Chk1 (Homo sapiens) (UniProt O14757); conditions: Compound concentration 1000.0 nM
[18] = molecular target: Serine/threonine-protein kinase 17B (Homo sapiens) (UniProt O94768); conditions: Compound concentration 1000.0 nM
[19] = test system: Phosphatidylinositol 4,5-bisphosphate 3-kinase catalytic subunit alpha isoform (Homo sapiens), P42336 [H1047Y]; conditions: Compound concentration 1000.0 nM
[20] = molecular target: Ephrin type-B receptor 4 (Homo sapiens) (UniProt P54760); conditions: Compound concentration 1000.0 nM
[21] = molecular target: Alpha-1A adrenergic receptor (Homo sapiens) (UniProt P35348); conditions: Compound concentration 10.0 uM
[22] = molecular target: Serine/threonine-protein kinase TAO3 (Homo sapiens) (UniProt Q9H2K8); conditions: Compound concentration 1000.0 nM
[23] = molecular target: ALK tyrosine kinase receptor (Homo sapiens) (UniProt Q9UM73); conditions: Compound concentration 1000.0 nM
[24] = molecular target: Phosphatidylinositol 4,5-bisphosphate 3-kinase catalytic subunit gamma isoform (Homo sapiens) (UniProt P48736); conditions: Compound concentration 1000.0 nM
[25] = molecular target: Serine/threonine-protein kinase Sgk1 (Homo sapiens) (UniProt O00141); conditions: Compound concentration 1000.0 nM
[26] = molecular target: Casein kinase I isoform delta (Homo sapiens) (UniProt P48730); conditions: Compound concentration 1000.0 nM
[27] = molecular target: Muscarinic acetylcholine receptor M4 (Homo sapiens) (UniProt P08173); conditions: Compound concentration 10.0 uM
[28] = molecular target: Ribosomal protein S6 kinase alpha-2 (Homo sapiens) (UniProt Q15349); conditions: Compound concentration 1000.0 nM
[29] = molecular target: Mitogen-activated protein kinase kinase kinase 9 (Homo sapiens) (UniProt P80192); conditions: Compound concentration 1000.0 nM
[30] = molecular target: Mast/stem cell growth factor receptor Kit (Homo sapiens) (UniProt P10721); conditions: Compound concentration 1000.0 nM
[31] = molecular target: Wee1-like protein kinase (Homo sapiens) (UniProt P30291); conditions: Compound concentration 1000.0 nM
[32] = molecular target: Serine/threonine-protein kinase PRP4 homolog (Homo sapiens) (UniProt Q13523); conditions: Compound concentration 1000.0 nM
[33] = molecular target: Serine/threonine-protein kinase PAK 4 (Homo sapiens) (UniProt O96013); conditions: Compound concentration 1000.0 nM
[34] = molecular target: Microtubule-associated serine/threonine-protein kinase 1 (Homo sapiens) (UniProt Q9Y2H9); conditions: Compound concentration 1000.0 nM
[35] = molecular target: Wee1-like protein kinase 2 (Homo sapiens) (UniProt P0C1S8); conditions: Compound concentration 1000.0 nM
[36] = test system: Mast/stem cell growth factor receptor Kit (Homo sapiens), P10721 [V559D]; conditions: Compound concentration 1000.0 nM
[37] = molecular target: Myosin light chain kinase, smooth muscle (Homo sapiens) (UniProt Q15746); conditions: Compound concentration 1000.0 nM
[38] = molecular target: TGF-beta receptor type-2 (Homo sapiens) (UniProt P37173); conditions: Compound concentration 1000.0 nM
[39] = molecular target: Discoidin domain-containing receptor 2 (Homo sapiens) (UniProt Q16832); conditions: Compound concentration 1000.0 nM
[40] = molecular target: Serine/threonine-protein kinase OSR1 (Homo sapiens) (UniProt O95747); conditions: Compound concentration 1000.0 nM
[41] = molecular target: Receptor-type tyrosine-protein kinase FLT3 (Homo sapiens) (UniProt P36888); conditions: Compound concentration 1000.0 nM
[42] = molecular target: Serine/threonine-protein kinase 35 (Homo sapiens) (UniProt Q8TDR2); conditions: Compound concentration 1000.0 nM
[43] = molecular target: RAC-alpha serine/threonine-protein kinase (Homo sapiens) (UniProt P31749); conditions: Compound concentration 1000.0 nM
[44] = molecular target: Dual specificity mitogen-activated protein kinase kinase 5 (Homo sapiens) (UniProt Q13163); conditions: Compound concentration 1000.0 nM
[45] = molecular target: cAMP-dependent protein kinase catalytic subunit beta (Homo sapiens) (UniProt P22694); conditions: Compound concentration 1000.0 nM

Mitogen-activated protein kinase 9 (Homo sapiens), sequence (P45984 whole entry, looked up): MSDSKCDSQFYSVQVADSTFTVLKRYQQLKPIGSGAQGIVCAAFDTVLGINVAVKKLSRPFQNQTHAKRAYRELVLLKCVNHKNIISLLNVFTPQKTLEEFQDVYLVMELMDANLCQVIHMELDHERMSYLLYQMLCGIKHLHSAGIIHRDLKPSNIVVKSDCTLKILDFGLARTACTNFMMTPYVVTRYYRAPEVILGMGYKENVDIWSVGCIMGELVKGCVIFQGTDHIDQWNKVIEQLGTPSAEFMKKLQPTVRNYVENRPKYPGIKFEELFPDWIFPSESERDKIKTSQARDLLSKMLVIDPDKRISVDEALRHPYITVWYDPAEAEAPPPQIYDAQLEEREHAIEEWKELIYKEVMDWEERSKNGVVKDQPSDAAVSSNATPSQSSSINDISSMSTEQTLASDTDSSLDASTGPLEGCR
Receptor-type tyrosine-protein kinase FLT3 (Homo sapiens), sequence (P36888 whole entry): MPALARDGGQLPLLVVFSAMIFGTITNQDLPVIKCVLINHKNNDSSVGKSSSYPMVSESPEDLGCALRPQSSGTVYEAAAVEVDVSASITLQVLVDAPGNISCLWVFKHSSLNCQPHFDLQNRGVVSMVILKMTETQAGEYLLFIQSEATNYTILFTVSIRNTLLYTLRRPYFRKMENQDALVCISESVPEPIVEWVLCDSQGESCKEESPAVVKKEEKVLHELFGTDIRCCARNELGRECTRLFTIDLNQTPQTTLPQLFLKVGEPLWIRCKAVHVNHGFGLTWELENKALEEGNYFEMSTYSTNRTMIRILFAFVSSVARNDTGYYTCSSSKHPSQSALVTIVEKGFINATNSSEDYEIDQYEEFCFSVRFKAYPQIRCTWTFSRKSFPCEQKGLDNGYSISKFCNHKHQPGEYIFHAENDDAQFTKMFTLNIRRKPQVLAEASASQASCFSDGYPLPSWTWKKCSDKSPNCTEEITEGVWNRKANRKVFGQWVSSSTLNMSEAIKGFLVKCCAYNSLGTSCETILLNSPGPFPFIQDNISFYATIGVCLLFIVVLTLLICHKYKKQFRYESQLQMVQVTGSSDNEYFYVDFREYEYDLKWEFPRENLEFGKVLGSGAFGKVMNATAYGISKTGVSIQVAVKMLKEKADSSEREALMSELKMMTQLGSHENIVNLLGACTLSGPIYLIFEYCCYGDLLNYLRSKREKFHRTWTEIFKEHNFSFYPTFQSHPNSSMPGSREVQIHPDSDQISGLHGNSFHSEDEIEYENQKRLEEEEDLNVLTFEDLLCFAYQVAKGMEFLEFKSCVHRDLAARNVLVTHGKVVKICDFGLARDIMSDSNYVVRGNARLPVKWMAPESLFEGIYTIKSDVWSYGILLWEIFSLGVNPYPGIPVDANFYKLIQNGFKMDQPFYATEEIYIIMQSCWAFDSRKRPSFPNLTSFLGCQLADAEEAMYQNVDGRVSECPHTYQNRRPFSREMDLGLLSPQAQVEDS
RAC-alpha serine/threonine-protein kinase (Homo sapiens), sequence (P31749 whole entry): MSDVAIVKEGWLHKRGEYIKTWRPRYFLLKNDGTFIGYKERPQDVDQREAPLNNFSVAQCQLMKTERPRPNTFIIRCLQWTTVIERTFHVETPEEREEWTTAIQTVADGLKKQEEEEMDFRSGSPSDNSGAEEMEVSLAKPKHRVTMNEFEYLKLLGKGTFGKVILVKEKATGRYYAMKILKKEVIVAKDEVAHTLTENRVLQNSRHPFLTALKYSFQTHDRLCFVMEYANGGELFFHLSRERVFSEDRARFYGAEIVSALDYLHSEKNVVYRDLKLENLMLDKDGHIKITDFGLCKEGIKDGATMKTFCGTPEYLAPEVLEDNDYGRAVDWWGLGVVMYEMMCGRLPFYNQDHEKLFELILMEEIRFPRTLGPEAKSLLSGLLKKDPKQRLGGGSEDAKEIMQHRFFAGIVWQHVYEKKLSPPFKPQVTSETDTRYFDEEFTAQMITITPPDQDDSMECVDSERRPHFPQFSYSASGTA
Phosphatidylinositol 4,5-bisphosphate 3-kinase catalytic subunit gamma isoform (Homo sapiens), sequence (P48736 whole entry, looked up, canonical isoform): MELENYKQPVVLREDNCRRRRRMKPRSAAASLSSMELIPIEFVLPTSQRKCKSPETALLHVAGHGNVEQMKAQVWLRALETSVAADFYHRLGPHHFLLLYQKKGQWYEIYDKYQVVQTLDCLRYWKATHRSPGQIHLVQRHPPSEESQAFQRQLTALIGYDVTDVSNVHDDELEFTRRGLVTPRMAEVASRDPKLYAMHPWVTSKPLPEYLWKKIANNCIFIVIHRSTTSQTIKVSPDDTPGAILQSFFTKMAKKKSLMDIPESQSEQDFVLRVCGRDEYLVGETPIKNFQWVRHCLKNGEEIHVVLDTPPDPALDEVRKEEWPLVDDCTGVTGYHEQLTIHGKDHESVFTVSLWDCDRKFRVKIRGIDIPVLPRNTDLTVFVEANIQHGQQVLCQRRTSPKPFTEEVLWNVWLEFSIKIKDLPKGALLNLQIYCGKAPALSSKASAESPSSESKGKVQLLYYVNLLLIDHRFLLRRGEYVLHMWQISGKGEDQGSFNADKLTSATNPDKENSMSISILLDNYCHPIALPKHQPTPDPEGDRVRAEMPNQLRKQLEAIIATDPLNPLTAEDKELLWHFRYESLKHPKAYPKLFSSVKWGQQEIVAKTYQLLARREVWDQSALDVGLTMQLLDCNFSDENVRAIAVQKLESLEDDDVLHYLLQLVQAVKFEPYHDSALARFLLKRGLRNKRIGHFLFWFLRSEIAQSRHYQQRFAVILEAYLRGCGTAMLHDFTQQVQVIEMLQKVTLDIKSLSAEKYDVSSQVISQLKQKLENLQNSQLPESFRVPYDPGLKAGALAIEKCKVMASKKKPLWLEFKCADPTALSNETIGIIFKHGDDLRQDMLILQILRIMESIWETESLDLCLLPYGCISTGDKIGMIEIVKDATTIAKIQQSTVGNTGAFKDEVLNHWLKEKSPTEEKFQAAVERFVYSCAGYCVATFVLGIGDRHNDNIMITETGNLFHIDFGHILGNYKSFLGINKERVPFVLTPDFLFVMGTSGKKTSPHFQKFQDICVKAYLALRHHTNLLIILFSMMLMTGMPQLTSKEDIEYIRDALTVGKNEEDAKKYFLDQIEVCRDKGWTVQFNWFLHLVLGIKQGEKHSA
Mitogen-activated protein kinase kinase kinase 1 (Homo sapiens), sequence (Q13233 whole entry): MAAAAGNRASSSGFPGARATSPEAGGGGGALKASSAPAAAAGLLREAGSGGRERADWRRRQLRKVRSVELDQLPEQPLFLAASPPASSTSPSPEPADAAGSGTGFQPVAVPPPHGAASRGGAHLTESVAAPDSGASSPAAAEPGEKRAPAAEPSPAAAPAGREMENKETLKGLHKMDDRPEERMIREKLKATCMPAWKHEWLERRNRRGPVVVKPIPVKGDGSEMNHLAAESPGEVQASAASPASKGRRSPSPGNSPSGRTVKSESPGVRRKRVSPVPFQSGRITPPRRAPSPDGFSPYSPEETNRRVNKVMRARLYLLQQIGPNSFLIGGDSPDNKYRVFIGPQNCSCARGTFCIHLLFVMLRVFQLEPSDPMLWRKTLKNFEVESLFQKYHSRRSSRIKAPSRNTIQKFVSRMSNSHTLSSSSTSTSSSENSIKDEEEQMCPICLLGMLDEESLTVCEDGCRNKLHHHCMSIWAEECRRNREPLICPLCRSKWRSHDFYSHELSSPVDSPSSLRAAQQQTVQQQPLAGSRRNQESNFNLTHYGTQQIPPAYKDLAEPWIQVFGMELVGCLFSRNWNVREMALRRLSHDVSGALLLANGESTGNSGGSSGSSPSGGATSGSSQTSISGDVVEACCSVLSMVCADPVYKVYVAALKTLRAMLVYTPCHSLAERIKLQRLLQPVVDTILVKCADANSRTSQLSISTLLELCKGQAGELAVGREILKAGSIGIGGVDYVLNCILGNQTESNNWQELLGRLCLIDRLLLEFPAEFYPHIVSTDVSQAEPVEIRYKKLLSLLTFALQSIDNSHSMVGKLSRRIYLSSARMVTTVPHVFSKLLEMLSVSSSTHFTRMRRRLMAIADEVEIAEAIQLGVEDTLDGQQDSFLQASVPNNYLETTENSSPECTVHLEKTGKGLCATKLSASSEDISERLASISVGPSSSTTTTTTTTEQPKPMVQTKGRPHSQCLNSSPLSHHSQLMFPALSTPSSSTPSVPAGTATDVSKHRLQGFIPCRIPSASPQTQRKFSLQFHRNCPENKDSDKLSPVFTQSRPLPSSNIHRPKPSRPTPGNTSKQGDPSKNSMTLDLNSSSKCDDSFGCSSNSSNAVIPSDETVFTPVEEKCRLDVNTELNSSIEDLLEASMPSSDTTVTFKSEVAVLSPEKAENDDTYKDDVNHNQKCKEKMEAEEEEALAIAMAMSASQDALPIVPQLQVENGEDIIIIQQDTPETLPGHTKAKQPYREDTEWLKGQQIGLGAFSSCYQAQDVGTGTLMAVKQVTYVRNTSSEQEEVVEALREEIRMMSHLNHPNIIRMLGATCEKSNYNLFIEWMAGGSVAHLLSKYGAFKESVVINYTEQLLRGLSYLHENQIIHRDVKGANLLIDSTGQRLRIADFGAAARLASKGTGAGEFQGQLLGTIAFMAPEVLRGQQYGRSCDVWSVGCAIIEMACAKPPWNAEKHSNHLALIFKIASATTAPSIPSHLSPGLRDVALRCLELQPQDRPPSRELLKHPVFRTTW
Death-associated protein kinase 3 (Homo sapiens), sequence (O43293 whole entry, looked up): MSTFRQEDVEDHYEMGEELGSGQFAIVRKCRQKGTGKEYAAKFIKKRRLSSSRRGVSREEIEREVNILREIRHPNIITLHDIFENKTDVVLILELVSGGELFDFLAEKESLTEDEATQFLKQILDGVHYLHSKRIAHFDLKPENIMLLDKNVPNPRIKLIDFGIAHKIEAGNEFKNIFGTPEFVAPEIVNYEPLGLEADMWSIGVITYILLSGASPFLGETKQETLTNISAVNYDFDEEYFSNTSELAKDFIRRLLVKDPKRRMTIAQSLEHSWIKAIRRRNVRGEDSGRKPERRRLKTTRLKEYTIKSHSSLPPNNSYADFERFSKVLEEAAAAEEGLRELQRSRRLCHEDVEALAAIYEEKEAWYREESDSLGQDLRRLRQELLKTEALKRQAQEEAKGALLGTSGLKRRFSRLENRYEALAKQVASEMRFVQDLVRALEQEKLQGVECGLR

CC(=O)Nc1c(C(C)=O)c(=O)n(C)c2nc(-c3ccc(Cl)cc3Cl)c(-c3ccc(Cl)cc3)cc12 [NAPHTHYRIDINONE]
inactive: residual activity [1] 100% | residual activity [2] 100% | residual activity [3] 83% | residual activity [4] 100% | residual activity [5] 100% | residual activity [6] 100% | residual activity [7] 100% | residual activity [8] 100% | residual activity [9] 100% | residual activity [10] 100% | residual activity [11] 100% | residual activity [12] 100% | residual activity [13] 100% | residual activity [14] 100% | residual activity [15] 100% | residual activity [16] 100% | residual activity [17] 100% | residual activity [18] 100% | residual activity [19] 100% | residual activity [20] 100% | inhibition [21] -6.63% | residual activity [22] 63% | residual activity [23] 100% | residual activity [24] 78% | residual activity [25] 100% | residual activity [26] 100% | inhibition [27] 0.711% | residual activity [28] 100% | residual activity [29] 100% | residual activity [30] 100% | residual activity [31] 100% | residual activity [32] 100% | residual activity [33] 100% | residual activity [34] 100% | residual activity [35] 100% | residual activity [36] 100% | residual activity [37] 100% | residual activity [38] 100% | residual activity [39] 100% | residual activity [40] 93% | residual activity [41] 100% | residual activity [42] 100% | residual activity [43] 100% | residual activity [44] 94% | residual activity [45] 100%

CC(=O)c1c(NS(C)(=O)=O)c2cc(-c3ccc(Cl)cc3)c(-c3ccc(Cl)cc3Cl)nc2n(C)c1=O [MRL-CB1-NC]
inactive: residual activity [1] 100% | residual activity [2] 67% | residual activity [3] 84% | residual activity [4] 100% | residual activity [5] 93% | residual activity [6] 94% | residual activity [7] 72% | residual activity [8] 94% | residual activity [9] 100% | residual activity [10] 100% | residual activity [11] 91% | residual activity [12] 90% | residual activity [13] 93% | residual activity [14] 100% | residual activity [15] 100% | residual activity [16] 100% | residual activity [17] 100% | residual activity [18] 100% | residual activity [19] 96% | residual activity [20] 92% | inhibition [21] 28.5% | residual activity [22] 72% | residual activity [23] 95% | residual activity [24] 82% | residual activity [25] 100% | residual activity [26] 100% | inhibition [27] 16.2% | residual activity [28] 80% | residual activity [29] 100% | residual activity [30] 100% | residual activity [31] 95% | residual activity [32] 83% | residual activity [33] 92% | residual activity [34] 100% | residual activity [35] 100% | residual activity [36] 100% | residual activity [37] 93% | residual activity [38] 100% | residual activity [39] 96% | residual activity [40] 79% | residual activity [41] 92% | residual activity [42] 100% | residual activity [43] 89% | residual activity [44] 80% | residual activity [45] 92%
